Active and inactive are the calls of the source. How the calls were made is not given here.
Tests used:
Test in all cases: ABHD10 inhibitor ABPP-SILAC selectivity profile – cell-based, LC-MS/MS, selectivity assay for PME-1 inhibitor project, late-stage follow-up (AID 588805)
Dpp8 = details: serine hydrolase panel, hits give low values
Qrsl1 = details: serine hydrolase panel, hits give low values
Pla2g15 = details: serine hydrolase panel, hits give low values
Bat5 = details: serine hydrolase panel, hits give low values
Pme1 = details: serine hydrolase panel, hits give low values
Prcp = details: serine hydrolase panel, hits give low values
Acot9 = details: serine hydrolase panel, hits give low values
Ddhd2 = details: serine hydrolase panel, hits give low values
Fam108b1 = details: serine hydrolase panel, hits give low values
Iah1 = details: serine hydrolase panel, hits give low values
Pnpla8 = details: serine hydrolase panel, hits give low values
Pnpla7 = details: serine hydrolase panel, hits give low values
Ppt2 = details: serine hydrolase panel, hits give low values
Ache = details: serine hydrolase panel, hits give low values
[1] = biological target: Acyl-protein thioesterase 1 (Mus musculus) (UniProt P97823); details: serine hydrolase panel, Lypla1, hits give low values
Pgap1 = details: serine hydrolase panel, hits give low values
Rbbp9 = details: serine hydrolase panel, hits give low values
Esd = details: serine hydrolase panel, hits give low values
Dpp9 = details: serine hydrolase panel, hits give low values
Pnpla6 = details: serine hydrolase panel, hits give low values
Lipe = details: serine hydrolase panel, hits give low values
Acot2 = details: serine hydrolase panel, hits give low values
Abhd13 = details: serine hydrolase panel, hits give low values
Serhl = details: serine hydrolase panel, hits give low values
Dpp7 = details: serine hydrolase panel, hits give low values
Pla2g6 = details: serine hydrolase panel, hits give low values
[2] = biological target: Prolyl endopeptidase (Mus musculus) (UniProt Q9QUR6); details: serine hydrolase panel, Prep, hits give low values
Lyplal1 = details: serine hydrolase panel, hits give low values
Acot7 = details: serine hydrolase panel, hits give low values
[3] = biological target: Palmitoyl-protein thioesterase ABHD10, mitochondrial (Mus musculus) (UniProt Q6PE15); details: serine hydrolase panel, hits give low values
Pafah1b2 = details: serine hydrolase panel, hits give low values
[4] = biological target: Monoacylglycerol lipase ABHD6 (Mus musculus) (UniProt Q8R2Y0); details: serine hydrolase panel, hits give low values
Ctsa = details: serine hydrolase panel, hits give low values
Pafah1b3 = details: serine hydrolase panel, hits give low values
Lypla2 = details: serine hydrolase panel, hits give low values
Nceh1 = details: serine hydrolase panel, hits give low values
Abhd12 = details: serine hydrolase panel, hits give low values
[5] = biological target: Platelet-activating factor acetylhydrolase 2, cytoplasmic (Mus musculus) (UniProt Q8VDG7); details: serine hydrolase panel, Pafah2, hits give low values
Parl = details: serine hydrolase panel, hits give low values
Fam108a = details: serine hydrolase panel, hits give low values
[6] = biological target: Diacylglycerol lipase-beta (Mus musculus) (UniProt Q91WC9); details: serine hydrolase panel, Daglb, hits give low values
Htra2 = details: serine hydrolase panel, hits give low values
Faah = details: serine hydrolase panel, hits give low values
Fasn = details: serine hydrolase panel, hits give low values
Prepl = details: serine hydrolase panel, hits give low values
Lactb = details: serine hydrolase panel, hits give low values
Apeh = details: serine hydrolase panel, hits give low values
Fam108c1 = details: serine hydrolase panel, hits give low values
Abhd11 = details: serine hydrolase panel, hits give low values
Sec23ip = details: serine hydrolase panel, hits give low values

Diacylglycerol lipase-beta (Mus musculus), sequence (Q91WC9 whole entry, looked up): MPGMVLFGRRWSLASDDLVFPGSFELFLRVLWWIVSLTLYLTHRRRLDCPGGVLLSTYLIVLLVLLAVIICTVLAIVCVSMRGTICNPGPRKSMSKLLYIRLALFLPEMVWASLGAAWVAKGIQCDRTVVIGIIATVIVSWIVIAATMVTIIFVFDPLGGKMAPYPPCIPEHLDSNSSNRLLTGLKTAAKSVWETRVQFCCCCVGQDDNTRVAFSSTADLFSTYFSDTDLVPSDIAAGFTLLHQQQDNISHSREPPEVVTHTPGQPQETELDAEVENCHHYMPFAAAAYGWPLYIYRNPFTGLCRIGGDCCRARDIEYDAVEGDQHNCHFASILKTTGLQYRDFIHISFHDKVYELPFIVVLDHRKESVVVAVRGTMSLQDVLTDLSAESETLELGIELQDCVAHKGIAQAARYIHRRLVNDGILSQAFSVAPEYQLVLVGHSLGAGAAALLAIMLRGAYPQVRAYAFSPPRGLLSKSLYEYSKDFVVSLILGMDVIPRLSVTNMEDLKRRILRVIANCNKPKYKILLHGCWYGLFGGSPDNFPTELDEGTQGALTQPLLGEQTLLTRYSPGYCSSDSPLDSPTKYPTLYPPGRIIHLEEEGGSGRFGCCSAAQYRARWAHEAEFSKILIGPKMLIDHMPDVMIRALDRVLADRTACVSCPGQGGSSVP
Acyl-protein thioesterase 1 (Mus musculus), sequence (P97823 whole entry, looked up): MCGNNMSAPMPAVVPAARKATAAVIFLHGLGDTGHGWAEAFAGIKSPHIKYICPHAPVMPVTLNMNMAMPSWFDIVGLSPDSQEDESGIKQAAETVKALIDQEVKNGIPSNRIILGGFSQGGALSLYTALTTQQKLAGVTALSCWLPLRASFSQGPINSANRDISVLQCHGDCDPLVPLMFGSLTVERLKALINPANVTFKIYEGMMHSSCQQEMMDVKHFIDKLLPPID
Prolyl endopeptidase (Mus musculus), sequence (Q9QUR6 whole entry, looked up): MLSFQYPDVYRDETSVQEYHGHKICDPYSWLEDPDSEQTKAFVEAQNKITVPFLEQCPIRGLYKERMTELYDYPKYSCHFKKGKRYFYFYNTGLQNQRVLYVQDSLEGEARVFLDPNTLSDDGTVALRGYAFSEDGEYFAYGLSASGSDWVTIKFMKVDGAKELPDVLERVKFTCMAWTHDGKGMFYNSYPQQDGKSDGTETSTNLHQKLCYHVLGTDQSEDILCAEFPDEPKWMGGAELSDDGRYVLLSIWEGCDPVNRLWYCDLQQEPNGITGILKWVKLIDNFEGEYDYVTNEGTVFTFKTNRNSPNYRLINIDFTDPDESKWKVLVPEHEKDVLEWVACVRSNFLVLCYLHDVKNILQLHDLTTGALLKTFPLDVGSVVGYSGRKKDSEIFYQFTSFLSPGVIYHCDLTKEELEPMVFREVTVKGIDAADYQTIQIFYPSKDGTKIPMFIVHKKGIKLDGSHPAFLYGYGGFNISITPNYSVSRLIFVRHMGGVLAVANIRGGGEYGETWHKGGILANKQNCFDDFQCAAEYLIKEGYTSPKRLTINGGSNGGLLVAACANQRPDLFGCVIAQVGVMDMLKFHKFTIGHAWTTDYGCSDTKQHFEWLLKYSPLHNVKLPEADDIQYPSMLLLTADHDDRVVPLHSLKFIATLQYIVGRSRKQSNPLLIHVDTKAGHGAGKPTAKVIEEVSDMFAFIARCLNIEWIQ
Platelet-activating factor acetylhydrolase 2, cytoplasmic (Mus musculus), sequence (Q8VDG7 whole entry, looked up): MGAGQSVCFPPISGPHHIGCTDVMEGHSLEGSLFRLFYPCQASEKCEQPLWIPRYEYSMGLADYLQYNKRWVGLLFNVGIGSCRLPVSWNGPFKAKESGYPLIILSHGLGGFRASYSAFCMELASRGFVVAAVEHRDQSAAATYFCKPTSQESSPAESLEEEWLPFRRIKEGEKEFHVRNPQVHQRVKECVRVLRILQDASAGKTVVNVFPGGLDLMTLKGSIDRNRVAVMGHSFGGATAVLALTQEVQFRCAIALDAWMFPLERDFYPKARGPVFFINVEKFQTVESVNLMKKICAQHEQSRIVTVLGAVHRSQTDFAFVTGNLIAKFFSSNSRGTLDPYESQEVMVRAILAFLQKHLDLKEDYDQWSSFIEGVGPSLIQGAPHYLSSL
Monoacylglycerol lipase ABHD6 (Mus musculus), sequence (Q8R2Y0 whole entry, looked up): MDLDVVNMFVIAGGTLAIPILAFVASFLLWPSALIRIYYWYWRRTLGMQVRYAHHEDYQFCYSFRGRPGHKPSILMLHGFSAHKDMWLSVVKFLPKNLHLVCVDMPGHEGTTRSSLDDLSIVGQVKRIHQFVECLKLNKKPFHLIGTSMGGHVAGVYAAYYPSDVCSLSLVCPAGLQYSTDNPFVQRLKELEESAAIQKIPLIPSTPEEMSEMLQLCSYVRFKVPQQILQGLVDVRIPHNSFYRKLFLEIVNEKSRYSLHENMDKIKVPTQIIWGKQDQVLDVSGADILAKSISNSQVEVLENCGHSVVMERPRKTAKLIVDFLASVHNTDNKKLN
Palmitoyl-protein thioesterase ABHD10, mitochondrial (Mus musculus), sequence (Q6PE15 whole entry, looked up): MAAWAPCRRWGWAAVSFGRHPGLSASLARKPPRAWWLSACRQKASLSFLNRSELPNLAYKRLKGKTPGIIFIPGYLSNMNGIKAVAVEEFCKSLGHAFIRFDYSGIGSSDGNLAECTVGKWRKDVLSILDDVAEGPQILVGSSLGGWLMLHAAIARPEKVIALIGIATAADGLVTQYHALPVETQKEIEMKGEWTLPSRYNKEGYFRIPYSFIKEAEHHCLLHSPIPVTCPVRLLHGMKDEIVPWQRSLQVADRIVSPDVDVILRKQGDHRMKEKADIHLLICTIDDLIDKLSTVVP

## CC[C@@]1(c2ccc(C)cc2)C(=O)N(C(=O)OC(C)C)N1C(=O)OC(C)C
Dpp8
  SILAC ratio (treated/control): 1.48 (inactive)
Qrsl1
  SILAC ratio (treated/control): 0.96 (inactive)
Pla2g15
  SILAC ratio (treated/control): 1 (inactive)
Bat5
  SILAC ratio (treated/control): 1.02 (inactive)
Pme1
  SILAC ratio (treated/control): 1.06 (inactive)
Prcp
  SILAC ratio (treated/control): 0.94 (inactive)
Acot9
  SILAC ratio (treated/control): 1.1 (inactive)
Ddhd2
  SILAC ratio (treated/control): 0.99 (inactive)
Fam108b1
  SILAC ratio (treated/control): 1.05 (inactive)
Iah1
  SILAC ratio (treated/control): 0.95 (inactive)
Pnpla8
  SILAC ratio (treated/control): 0.97 (inactive)
Pnpla7
  SILAC ratio (treated/control): 1.01 (inactive)
Ppt2
  SILAC ratio (treated/control): 1.04 (inactive)
Ache
  SILAC ratio (treated/control): 0.9 (inactive)
[1]
  SILAC ratio (treated/control): 1.14 (inactive)
Pgap1
  SILAC ratio (treated/control): 0.92 (inactive)
Rbbp9
  SILAC ratio (treated/control): 1.07 (inactive)
Esd
  SILAC ratio (treated/control): 1.04 (inactive)
Dpp9
  SILAC ratio (treated/control): 1.08 (inactive)
Pnpla6
  SILAC ratio (treated/control): 1.32 (inactive)
Lipe
  SILAC ratio (treated/control): 1.13 (inactive)
Acot2
  SILAC ratio (treated/control): 1 (inactive)
Abhd13
  SILAC ratio (treated/control): 0.84 (inactive)
Serhl
  SILAC ratio (treated/control): 0.9 (inactive)
Dpp7
  SILAC ratio (treated/control): 0.97 (inactive)
Pla2g6
  SILAC ratio (treated/control): 1.06 (inactive)
[2]
  SILAC ratio (treated/control): 1.01 (inactive)
Lyplal1
  SILAC ratio (treated/control): 1.06 (inactive)
Acot7
  SILAC ratio (treated/control): 1.05 (inactive)
[3]
  SILAC ratio (treated/control): 0.02
Pafah1b2
  SILAC ratio (treated/control): 1.06 (inactive)
[4]
  SILAC ratio (treated/control): 0.87 (inactive)
Ctsa
  SILAC ratio (treated/control): 0.81 (inactive)
Pafah1b3
  SILAC ratio (treated/control): 1.06 (inactive)
Lypla2
  SILAC ratio (treated/control): 1.07 (inactive)
Nceh1
  SILAC ratio (treated/control): 1.03 (inactive)
Abhd12
  SILAC ratio (treated/control): 0.9 (inactive)
[5]
  SILAC ratio (treated/control): 1.06 (inactive)
Parl
  SILAC ratio (treated/control): 0.96 (inactive)
Fam108a
  SILAC ratio (treated/control): 1.16 (inactive)
[6]
  SILAC ratio (treated/control): 0.96 (inactive)
Htra2
  SILAC ratio (treated/control): 0.98 (inactive)
Faah
  SILAC ratio (treated/control): 0.94 (inactive)
Fasn
  SILAC ratio (treated/control): 1.1 (inactive)
Prepl
  SILAC ratio (treated/control): 1.05 (inactive)
Lactb
  SILAC ratio (treated/control): 0.85 (inactive)
Apeh
  SILAC ratio (treated/control): 1.07 (inactive)
Fam108c1
  SILAC ratio (treated/control): 0.93 (inactive)
Abhd11
  SILAC ratio (treated/control): 1 (inactive)
Sec23ip
  SILAC ratio (treated/control): 1.17 (inactive)

Reference: PubChem BioAssay AID588805 (The Scripps Research Institute Molecular Screening Center, 2011)
